From the supplement of paper PMC10307832

Columns and labels:
Assay in all cases: relative viability (nuclei count vs DMSO), 5 days (fraction); higher = more cells survive
PC-3 [JPC-3] = test system: PC-3 [JPC-3]
Method in brief: (§1)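 Lung cancer cell lines in 1536-well plates got either a single drug or a fixed anchor-drug dose together with five library-drug doses (not always all listed) in √10 steps, by pin tool, on the day after seeding. Nuclei were counted after 5 days, and relative viability is the treated-to-vehicle ratio of nuclei counts. Values are medians of duplicate plates.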

ChaGo-K-1 = test system: ChaGo-K-1
Method in brief: as §1

NCI-H2342 = test system: NCI-H2342
Method in brief: as §1

NCI-H661 = test system: NCI-H661
Method in brief: as §1

NCI-H1975 = test system: NCI-H1975
Method in brief: as §1

LXF-289 = test system: LXF-289
Method in brief: as §1

LK-2 = test system: LK-2
Method in brief: as §1

NCI-H2087 = test system: NCI-H2087
Method in brief: as §1

NCI-H1944 = test system: NCI-H1944
Method in brief: as §1

NCI-H358 = test system: NCI-H358
Method in brief: as §1

NCI-H838 = test system: NCI-H838
Method in brief: as §1

BEN = test system: BEN
Method in brief: as §1

LC-2-ad = test system: LC-2-ad
Method in brief: as §1

LU99A = test system: LU99A
Method in brief: as §1

SK-MES-1 = test system: SK-MES-1
Method in brief: as §1

NCI-H596 = test system: NCI-H596
Method in brief: as §1

LCLC-97TM1 = test system: LCLC-97TM1
Method in brief: as §1

NCI-H1666 = test system: NCI-H1666
Method in brief: as §1

NCI-H650 = test system: NCI-H650
Method in brief: as §1

HCC-78 = test system: HCC-78
Method in brief: as §1

NCI-H1355 = test system: NCI-H1355
Method in brief: as §1

NCI-H1651 = test system: NCI-H1651
Method in brief: as §1

## CCN(CC)CCCCNc1ncc2cc(-c3cc(OC)cc(OC)c3)c(NC(=O)NC(C)(C)C)nc2n1 + Cc1nc(Nc2ncc(C(=O)Nc3c(C)cccc3Cl)s2)cc(N2CCN(CCO)CC2)n1 [Dasatinib] (partner 0.075 µM)
PC-3 [JPC-3]; first compound 0.01 µM
  relative viability: 1.05
PC-3 [JPC-3]; first compound 0.03162 µM
  relative viability: 1.07
PC-3 [JPC-3]; first compound 0.1 µM
  relative viability: 1.06
PC-3 [JPC-3]; first compound 0.3162 µM
  relative viability: 1.08
PC-3 [JPC-3]; first compound 1 µM
  relative viability: 0.909
ChaGo-K-1; first compound 0.01 µM
  relative viability: 0.584
ChaGo-K-1; first compound 0.03162 µM
  relative viability: 0.602
ChaGo-K-1; first compound 0.1 µM
  relative viability: 0.655
ChaGo-K-1; first compound 0.3162 µM
  relative viability: 0.643
ChaGo-K-1; first compound 1 µM
  relative viability: 0.514
NCI-H2342; first compound 0.01 µM
  relative viability: 0.296
NCI-H2342; first compound 0.03162 µM
  relative viability: 0.345
NCI-H2342; first compound 0.1 µM
  relative viability: 0.321
NCI-H2342; first compound 0.3162 µM
  relative viability: 0.332
NCI-H2342; first compound 1 µM
  relative viability: 0.31
NCI-H661; first compound 0.01 µM
  relative viability: 0.906
NCI-H661; first compound 0.03162 µM
  relative viability: 0.841
NCI-H661; first compound 0.1 µM
  relative viability: 1.1
NCI-H661; first compound 0.3162 µM
  relative viability: 1.03
NCI-H661; first compound 1 µM
  relative viability: 0.644
NCI-H1975; first compound 0.01 µM
  relative viability: 0.369
NCI-H1975; first compound 0.03162 µM
  relative viability: 0.403
NCI-H1975; first compound 0.1 µM
  relative viability: 0.458
NCI-H1975; first compound 0.3162 µM
  relative viability: 0.452
NCI-H1975; first compound 1 µM
  relative viability: 0.313
LXF-289; first compound 0.01 µM
  relative viability: 0.209
LXF-289; first compound 0.03162 µM
  relative viability: 0.249
LXF-289; first compound 0.1 µM
  relative viability: 0.266
LXF-289; first compound 0.3162 µM
  relative viability: 0.167
LXF-289; first compound 1 µM
  relative viability: 0.0987
LK-2; first compound 0.01 µM
  relative viability: 0.29
LK-2; first compound 0.03162 µM
  relative viability: 0.267
LK-2; first compound 0.1 µM
  relative viability: 0.254
LK-2; first compound 0.3162 µM
  relative viability: 0.188
LK-2; first compound 1 µM
  relative viability: 0.212
NCI-H2087; first compound 0.01 µM
  relative viability: 0.993
NCI-H2087; first compound 0.03162 µM
  relative viability: 0.797
NCI-H2087; first compound 0.1 µM
  relative viability: 0.964
NCI-H2087; first compound 0.3162 µM
  relative viability: 0.961
NCI-H2087; first compound 1 µM
  relative viability: 0.888
NCI-H1944; first compound 0.01 µM
  relative viability: 0.197
NCI-H1944; first compound 0.03162 µM
  relative viability: 0.212
NCI-H1944; first compound 0.1 µM
  relative viability: 0.22
NCI-H1944; first compound 0.3162 µM
  relative viability: 0.236
NCI-H1944; first compound 1 µM
  relative viability: 0.196
NCI-H358; first compound 0.01 µM
  relative viability: 0.169
NCI-H358; first compound 0.03162 µM
  relative viability: 0.127
NCI-H358; first compound 0.1 µM
  relative viability: 0.157
NCI-H358; first compound 0.3162 µM
  relative viability: 0.147
NCI-H358; first compound 1 µM
  relative viability: 0.198
NCI-H838; first compound 0.01 µM
  relative viability: 0.259
NCI-H838; first compound 0.03162 µM
  relative viability: 0.305
NCI-H838; first compound 0.1 µM
  relative viability: 0.307
NCI-H838; first compound 0.3162 µM
  relative viability: 0.305
NCI-H838; first compound 1 µM
  relative viability: 0.246
BEN; first compound 0.01 µM
  relative viability: 0.298
BEN; first compound 0.03162 µM
  relative viability: 0.282
BEN; first compound 0.1 µM
  relative viability: 0.359
BEN; first compound 0.3162 µM
  relative viability: 0.353
BEN; first compound 1 µM
  relative viability: 0.26
LC-2-ad; first compound 0.01 µM
  relative viability: 0.575
LC-2-ad; first compound 0.03162 µM
  relative viability: 0.679
LC-2-ad; first compound 0.1 µM
  relative viability: 0.73
LC-2-ad; first compound 0.3162 µM
  relative viability: 0.664
LC-2-ad; first compound 1 µM
  relative viability: 0.344
LU99A; first compound 0.01 µM
  relative viability: 0.508
LU99A; first compound 0.03162 µM
  relative viability: 0.611
LU99A; first compound 0.1 µM
  relative viability: 0.712
LU99A; first compound 0.3162 µM
  relative viability: 0.499
LU99A; first compound 1 µM
  relative viability: 0.445
SK-MES-1; first compound 0.01 µM
  relative viability: 0.36
SK-MES-1; first compound 0.03162 µM
  relative viability: 0.375
SK-MES-1; first compound 0.1 µM
  relative viability: 0.407
SK-MES-1; first compound 0.3162 µM
  relative viability: 0.281
SK-MES-1; first compound 1 µM
  relative viability: 0.27
NCI-H596; first compound 0.01 µM
  relative viability: 0.633
NCI-H596; first compound 0.03162 µM
  relative viability: 0.593
NCI-H596; first compound 0.1 µM
  relative viability: 0.585
NCI-H596; first compound 0.3162 µM
  relative viability: 0.393
NCI-H596; first compound 1 µM
  relative viability: 0.44
LCLC-97TM1; first compound 0.01 µM
  relative viability: 0.806
LCLC-97TM1; first compound 0.03162 µM
  relative viability: 0.877
LCLC-97TM1; first compound 0.1 µM
  relative viability: 0.93
LCLC-97TM1; first compound 0.3162 µM
  relative viability: 0.934
LCLC-97TM1; first compound 1 µM
  relative viability: 0.838
NCI-H1666; first compound 0.01 µM
  relative viability: 0.824
NCI-H1666; first compound 0.03162 µM
  relative viability: 0.757
NCI-H1666; first compound 0.1 µM
  relative viability: 0.942
NCI-H1666; first compound 0.3162 µM
  relative viability: 0.884
NCI-H1666; first compound 1 µM
  relative viability: 0.639
NCI-H650; first compound 0.01 µM
  relative viability: 0.368
NCI-H650; first compound 0.03162 µM
  relative viability: 0.454
NCI-H650; first compound 0.1 µM
  relative viability: 0.468
NCI-H650; first compound 0.3162 µM
  relative viability: 0.48
NCI-H650; first compound 1 µM
  relative viability: 0.427
HCC-78; first compound 0.01 µM
  relative viability: 0.46
HCC-78; first compound 0.03162 µM
  relative viability: 0.361
HCC-78; first compound 0.1 µM
  relative viability: 0.493
HCC-78; first compound 0.3162 µM
  relative viability: 0.421
HCC-78; first compound 1 µM
  relative viability: 0.364
NCI-H1355; first compound 0.01 µM
  relative viability: 0.775
NCI-H1355; first compound 0.03162 µM
  relative viability: 0.751
NCI-H1355; first compound 0.1 µM
  relative viability: 0.746
NCI-H1355; first compound 0.3162 µM
  relative viability: 0.775
NCI-H1355; first compound 1 µM
  relative viability: 0.663
NCI-H1651; first compound 0.01 µM
  relative viability: 0.465
NCI-H1651; first compound 0.03162 µM
  relative viability: 0.448
NCI-H1651; first compound 0.1 µM
  relative viability: 0.486
NCI-H1651; first compound 0.3162 µM
  relative viability: 0.47
NCI-H1651; first compound 1 µM
  relative viability: 0.288
